Experimental findings from patent publication US6812258B2, “Cancer treatment composition and method using natural plant essential oils” (Ecosmart Technologies, Inc., priority 1998, dated 2004) are described below.

The subject of assay [1] is Human Epithelial Breast Cancer Cells (MCF-7). Description: Antiproliferative effect, 3H-thymidine incorporation in MCF-7 cells with and without estrogen. As to conditions: 24 hours treatment; for activity at 50 µg/mL: Homo sapiens, MCF7, 24 h. The assay is classed as cell-based. On the procedure: (§1) MCF-7 cells were cultured in growth medium supplemented with 10% fetal bovine serum (FBS). At 85% confluence, cells were sub-cultured in 5% FBS serum stripped medium, phenol red free for 24 hours prior to the treatment of the test chemical. After 24 hours of treatment cell proliferation was measured using ^3H-thymidine incorporation. These test chemicals were tested in the presence and absence of estrogen to address if they have anti-estrogenic activity in addition to their antiproliferative effect. The study was done in triplicate and a control was used with solvent only. Control received solvent only at <0.1% ethanol. Estrogen was tested at 1 nM (=0.27 ng E2/ml). Exemplary plant essential oil compounds were tested at 50 ug/ml.
as §1, with “(0.27” for “(=0.27”, “Plant” for “Exemplary plant”
In general terms: Uptake of a labelled nucleoside into DNA is a usual measure of proliferation.

Assay [2] concerns MCF-7 cells. In words: Dose-response effect on E2-induced cell growth, viable cell count (trypan blue, haemocytometer). The assay is classed as cell-based, human. As to conditions: for % anti-E2 / Cell count average / Cell count well #1 / Cell count well #2: Day 5. On the procedure:
MCF-7 cells were cultured in growth medium supplemented with 10% fetal bovine serum (FBS). At 85% confluence, cells were sub-cultured in 6 well petri-dishes and supplemented with 5% FBS serum stripped medium, phenol red free for 24 hours prior to the treatment of different concentrations of the test chemicals. After 5 days of treatment cells were trypsinized, collected using Eppendorf microcentrifuge. The cell pellets were resuspended in 1% trypan blue and three aliquots (10 ul each) of the viable cell suspension were counted using a haemocytometer assay. Each sample was then counted three times and the data shown is the average of three counts. These test chemicals were tested in the presence of 10 nM estrogen (=2.7 ng estrogen/ml). Two wells per test concentration were used. This experiment was repeated two times. Control received solvent only at <0.1% ethanol.

Setting [3] is: read-out: 3H-thymidine incorporation % of control value, Table 1, test chemical 50 ug/ml + estrogen 1 nM.
The mark [4] stands for this setting: read-out: 3H-thymidine incorporation % of control value, Table 1, test chemical 50 ug/ml alone.
Setting [5] is: Table 1, test chemical 50 ug/ml + estrogen 1 nM.
[6] abbreviates: Table 1, test chemical 50 ug/ml alone.
Where [7] appears, read: Table 1, test chemical 50 ug/ml + estrogen 1 nM, read-out: 3H-thymidine incorporation % of control value.
Where [8] appears, read: Table 1, test chemical 50 ug/ml alone, read-out: 3H-thymidine incorporation % of control value.
Where [9] appears, read: test chemical 1 μg/ml + E2 10 nM.
[10] abbreviates: test chemical 5 μg/ml + E2 10 nM.
Setting [11] is: test chemical 10 μg/ml + E2 10 nM.
Setting [12] is: test chemical 20 μg/ml + E2 10 nM.
The mark [13] stands for this setting: Table 2, test chemical 50 ug/ml + estrogen 1 nM, read-out: 3H-thymidine incorporation % of control value.
[14] abbreviates: Table 2, test chemical 50 ug/ml alone, read-out: 3H-thymidine incorporation % of control value.
Setting [15] is: Table 2, test chemical 50 ug/ml + estrogen 1 nM.
Setting [16] is: Table 2, test chemical 50 ug/ml alone.
Where [17] appears, read: test chemical 50 μg/ml + E2 10 nM.

Read-outs that look alike come from different tables or passages of the source.

Consider `Cc1ccc(C(C)C)cc1O` [Carvacrol], for which the figures for the activity at 50 µg/mL in assay [1] (setting [3]) and in assay [1] (setting [4]) were 43% and 50%, respectively. The “3H-thymidine incorporation % of estrogen value” in assay [1] (setting [5]) amounted to 28%. For the same molecule, the entries for the “3H-thymidine incorporation dpm/ug protein” value in assay [1] (setting [5]) and in assay [1] (setting [6]) were 181.7 dpm/ug protein and 207.2 dpm/ug protein, respectively.
Turning to `OC/C=C/c1ccccc1` [Cinnamic alcohol], the activity at 50 µg/mL in assay [1] (setting [7]) came out at 53%; in assay [1] (setting [8]), 4%. Also, the “3H-thymidine incorporation % of estrogen value” in assay [1] (setting [5]) was 34%. Moreover, the entries for the “3H-thymidine incorporation dpm/ug protein” value in assay [1] (setting [5]) and in assay [1] (setting [6]) were 220.8 dpm/ug protein and 18.5 dpm/ug protein, respectively.
Regarding `CC(C)=CCCC(C)CC=O` (centres unmarked) [Citronellal], the activity at 50 µg/mL in assay [1] (setting [7]) is 69%; in assay [1] (setting [8]), 20%. Also, the “3H-thymidine incorporation % of estrogen value” in assay [1] (setting [5]) is on record as 43%. Besides, the “3H-thymidine incorporation dpm/ug protein” value in assay [1] (setting [5]) is given as 284.0 dpm/ug protein; in assay [1] (setting [6]), 85.2 dpm/ug protein.
As to `CC12CCC(CC1)C(C)(C)O2` [Eucalyptol], the results for the activity at 50 µg/mL in assay [1] (setting [7]) and in assay [1] (setting [8]) were 137% and 96%, respectively. The “3H-thymidine incorporation % of estrogen value” in assay [1] (setting [5]) is recorded as 86%. For the same molecule, the “3H-thymidine incorporation dpm/ug protein” value in assay [1] (setting [5]) is recorded as 568.0 dpm/ug protein; in assay [1] (setting [6]) it was 398.0 dpm/ug protein.
Turning to `C=CCc1ccc(O)c(OC)c1` [Eugenol], the values for the activity at 50 µg/mL in assay [1] (setting [3]) and in assay [1] (setting [4]) were 70% and 52%, respectively. Besides, in assay [1] (setting [5]), the “3H-thymidine incorporation % of estrogen value” was determined as 44%. In addition, the “3H-thymidine incorporation dpm/ug protein” value in assay [1] (setting [5]) was determined as 289.1 dpm/ug protein; in assay [1] (setting [6]) it was 215.6 dpm/ug protein. Moreover, the “protection against the E2-induced abnormal growth in cancer breast cells” value in assay [2] (1 ug/ml, summary of Table 3) worked out at 35%. The “% anti-E2” value in assay [2] (setting [9]) is listed as 25.00%; in assay [2] (setting [10]), 41.70%; in assay [2] (setting [11]) it was 50.00%; in assay [2] (setting [12]), 60.40%. The Cell count average in assay [2] (setting [9]) is on record as 24.0 × (10^4)/ml; in assay [2] (setting [10]), 19.0 × (10^4)/ml; in assay [2] (setting [11]) it was 16.0 × (10^4)/ml; in assay [2] (setting [12]), 13.0 × (10^4)/ml. Besides, the “Cell count well #1” value in assay [2] (setting [9]) is 19 × (10^4)/ml; in assay [2] (setting [10]), 19 × (10^4)/ml; in assay [2] (setting [11]), 18 × (10^4)/ml; in assay [2] (setting [12]) it was 10 × (10^4)/ml. Besides, the “Cell count well #2” value in assay [2] (setting [9]) is listed as 29 × (10^4)/ml; in assay [2] (setting [10]), 19 × (10^4)/ml; in assay [2] (setting [11]) it was 14 × (10^4)/ml; in assay [2] (setting [12]) it was 16 × (10^4)/ml.
Take `COc1ccccc1O` [Guaiacol]: the activity at 50 µg/mL in assay [1] (setting [13]) was 180%; in assay [1] (setting [14]), 163%. For the same molecule, the “3H-thymidine incorporation % of estrogen value” in assay [1] (setting [15]) stood at 119%. The “3H-thymidine incorporation dpm/μg protein” value in assay [1] (setting [15]) was determined as 788.8 dpm/μg protein; in assay [1] (setting [16]), 712.3 dpm/μg protein.
As for `COC(=O)c1ccccc1O` [Methyl salicylate], the activity at 50 µg/mL in assay [1] (setting [7]) was 168%; in assay [1] (setting [8]), 107%. Also, the “3H-thymidine incorporation % of estrogen value” in assay [1] (setting [5]) came out at 106%. Besides, the “3H-thymidine incorporation dpm/ug protein” value in assay [1] (setting [5]) is listed as 693.9 dpm/ug protein; in assay [1] (setting [6]) it was 444.0 dpm/ug protein.
Take `C=C(C)[C@H]1CC=C(C)CC1` [R-(+)-Limonene]: in assay [1] (setting [15]), the “3H-thymidine incorporation % of control value” is recorded as 119.3%, the “3H-thymidine incorporation % of estrogen value” is listed as 79% and the “3H-thymidine incorporation dpm/μg protein” value was found to be 522.6 dpm/μg protein. Moreover, in assay [1] (setting [16]), the “3H-thymidine incorporation % of control value” amounted to 89.7% and the “3H-thymidine incorporation dpm/μg protein” value was 393.1 dpm/μg protein.
As to `Cc1ccc(C(C)C)c(O)c1` [Thymol], the activity at 50 µg/mL in assay [1] (setting [7]) worked out at 26%; in assay [1] (setting [8]) it was 23%. Besides, in assay [1] (setting [5]), the “3H-thymidine incorporation % of estrogen value” was 16%. Further, the “3H-thymidine incorporation dpm/ug protein” value was found to be 108.2 dpm/ug protein in assay [1] (setting [5]) and 97.3 dpm/ug protein in assay [1] (setting [6]). The “protection against the E2-induced abnormal growth in cancer breast cells” value in assay [2] (5 ug/ml, summary of Table 3) is 40%. Besides, the “% anti-E2” value in assay [2] (setting [9]) is 00.00%; in assay [2] (setting [10]), 40.60%; in assay [2] (setting [11]), 62.50%; in assay [2] (setting [12]), 62.50%. Further, the Cell count average in assay [2] (setting [9]) was 32.0 × (10^4)/ml; in assay [2] (setting [10]), 19.0 × (10^4)/ml; in assay [2] (setting [11]), 12.0 × (10^4)/ml; in assay [2] (setting [12]) it was 12.0 × (10^4)/ml. For the same molecule, the “Cell count well #1” value in assay [2] (setting [9]) is recorded as 32 × (10^4)/ml; in assay [2] (setting [10]) it was 20 × (10^4)/ml; in assay [2] (setting [11]), 12 × (10^4)/ml; in assay [2] (setting [12]), 10 × (10^4)/ml. Further, the “Cell count well #2” value in assay [2] (setting [9]) is 32 × (10^4)/ml; in assay [2] (setting [10]), 18 × (10^4)/ml; in assay [2] (setting [11]), 12 × (10^4)/ml; in assay [2] (setting [12]) it was 14 × (10^4)/ml.
Turning to `C/C=C/c1ccc(OC)cc1` [Trans-anethole], the values for the activity at 50 µg/mL in assay [1] (setting [7]) and in assay [1] (setting [8]) were 142% and 105%, respectively. Also, the “3H-thymidine incorporation % of estrogen value” in assay [1] (setting [5]) amounted to 89%. Also, the “3H-thymidine incorporation dpm/ug protein” value in assay [1] (setting [5]) is given as 589.8 dpm/ug protein; in assay [1] (setting [6]) it was 434.9 dpm/ug protein.
In the case of `OCc1ccccc1` [benzyl alcohol], in assay [2] (setting [17]), the “% anti-E2” value stood at 35.40%, the Cell count average is listed as 21.0 × (10^4)/ml, the “Cell count well #1” value was 24 × (10^4)/ml and the “Cell count well #2” value is 18 × (10^4)/ml.
On to `O=C/C=C\c1ccccc1` [cinnamic aldehyde], for which the “control against the E2-induced abnormal growth in cancer breast cells” value in assay [2] (50 ug/ml, summary of Table 3) is on record as “approximately 96%”. In assay [2] (setting [17]), the “% anti-E2” value was 96.90%, the Cell count average is listed as 01.0 × (10^4)/ml, the “Cell count well #1” value is on record as 00 × (10^4)/ml and the “Cell count well #2” value is on record as 02 × (10^4)/ml.
Take `Cc1ccc(C(C)C)cc1` [p-cymene]: the activity at 50 µg/mL in assay [1] (setting [7]) is 152%; in assay [1] (setting [8]), 101%. For the same molecule, the “3H-thymidine incorporation % of estrogen value” in assay [1] (setting [5]) is 96%. The “3H-thymidine incorporation dpm/ug protein” value came out at 632.0 dpm/ug protein in assay [1] (setting [5]) and 419.0 dpm/ug protein in assay [1] (setting [6]).
With `CC1=CC[C@H](C(C)C)C=C1` [α-phellandrene], in assay [1] (setting [15]), the “3H-thymidine incorporation % of control value” was 145.0%, the “3H-thymidine incorporation % of estrogen value” came out at 96% and the “3H-thymidine incorporation dpm/μg protein” value stood at 635.3 dpm/μg protein. Further, in assay [1] (setting [16]), the “3H-thymidine incorporation % of control value” was determined as 79.5% and the “3H-thymidine incorporation dpm/μg protein” value was determined as 348.4 dpm/μg protein.
`CC1=CCC(C(C)(C)O)CC1` (stereo not drawn) [α-terpineol]: the activity at 50 µg/mL turned out to be 164% in assay [1] (setting [7]), 116% in assay [1] (setting [8]), 145% in assay [1] (setting [13]) and 112% in assay [1] (setting [14]). For the same molecule, the “3H-thymidine incorporation % of estrogen value” in assay [1] (setting [5]) turned out to be 103%; in assay [1] (setting [15]) it was 96%. In addition, the figures for the “3H-thymidine incorporation dpm/ug protein” value in assay [1] (setting [5]) and in assay [1] (setting [6]) were 679.1 dpm/ug protein and 480.5 dpm/ug protein, respectively. Also, the “3H-thymidine incorporation dpm/μg protein” value in assay [1] (setting [15]) is on record as 636.7 dpm/μg protein; in assay [1] (setting [16]) it was 490.7 dpm/μg protein.
